Reference: US6747021B2, “Cryptophycin compound” (Eli Lilly and Company, priority 2000, dated 2004)
Read-outs that look alike come from different tables or passages of the source.

What was measured:
[1] = system: MAMMARY ADENOCARCINOMA-17/ADR/Resist.; format: in vivo, murine; conditions: IV 30 mg/kg/inj days 1,3,5,7,9; total dose 150 mg/kg; C3H female mice
Source text: (§1) Inhibition of tumors transplanted into mice is an accepted procedure for studying the efficacy of antitumor agents (Corbett, et al., In vivo Methods for Screening and Preclinical Testing; Use of rodent solid tumors for drug discovery., In: Anticancer Drug Development Guide: Preclinical Screening, Clinical Trials, and Approval, B. Teicher (ed), Humana Press Inc., Totowa, N.J., Chapter 5, pages 75-99 (1997); (Corbett, et al., Int. J. Pharmacog., 33, Supplement, 102-122 (1995)). Murine tumors or human xenographs were implanted essentially as described by Corbett in In vivo Methods for Screening and Preclinical Testing; Use of rodent solid tumors for drug discovery. Briefly, the murine tumor or human xenograph was implanted subcutaneously using either 12-gauge trocar implants or counted number of cells. The location for the trocar insertion is midway between the axillary and inguinal region along the side of the mouse. The trocar is slipped approximately ¾ of an inch subcutaneously up toward the axilla before discharging the tumor fragment, and pinching the skin as the trocar is removed. Alternatively, human tumor cells prepared from a […] of donor tumors (5×10^6 cells) were implanted subcutaneously in a hind-leg of a male or female nude mouse (Charles River). Either a test compound in vehicle or vehicle alone was administered by intravenous bolus injection (iv), intraperitoneal injection (ip), or oral gavage (po). Each treatment group, as well as a group of untreated control animals, consisted of five animals per group in each experiment. Subcutaneous tumor response was monitored by tumor volume measurement performed twice each week over the course of the experiment (60-120 days). Body weights were taken as a general measure of toxicity. The subcutaneous tumor data were analyzed by determining the median tumor weight for each treatment group over the course of the experiment and calculating the tumor growth delay as the difference in days for the treatment versus the control tumors to reach a volume of either 500 or 1000 mm^3.
(§2) Cryptophycin-309 (309) was tested against a variety of murine and human tumors substantially as described supra. Cryptophycin-55 glycinate (55-GLY), Taxol, and Adriamycin (Adria) were also included in certain tests for purposes of comparison. Cryptophycin 55 glycinate is known in the art (WO 98/08505, Example 9) and has the following structure: [drawing 9]
(§3) Tumor Weight(mg)=(a×b^2)/2 where a=tumor length (mm) and b=tumor width (mm).
(§4) Tumor Growth Delay=T−C where T is the median time (days) required for the treatment group tumors to reach a predetermined size, and C is the median time (days) for the control group tumors to reach the same size. Tumor-free survivors are excluded from this calculation, and are tabulated separately (Tumor Free).
(§5) Log Kill=Tumor Growth Delay/(3.32)(Td)
(§6) where Tumor Growth Delay is as previously defined and Td is tumor volume doubling time (days), estimated from the best fit straight line from a log-linear growth plot of the control group of tumors in exponential growth (100-800 mg range)
(§7) %T/C mass—The treatment and control groups are measured when the control group tumors reach approximately 700 to 1200 mg in size (median group). The median tumor weight of each group is determined (including zeros). The T/C value in percent is an indication of antitumor effectiveness. A T/C≦42% is considered significant antitumor activity. A T/C<10% is considered to indicate highly significant antitumor activity.
(§8) Body Weight Loss Nadir—A body weight loss nadir (mean of group) of greater than 20% or drug deaths greater than 20% are considered to indicate an excessively toxic dosage in single course trials.
(§9) Activity Rating—the Activity Rating is derived from the Log Kill according to the following table: […]

[2] = system: MAMMARY ADENOCARCINOMA 16/C; format: in vivo, murine; conditions: C3H/HeN female mice
Source text: as §1, §2, §3, §4, §5, §6, §7, §8, §9

[3] = system: COLON ADENOCARCINOMA 51/A; test: Early stage murine colon adenocarcinoma 51/A subcutaneous tumor assay; format: in vivo; conditions: IV 28 mg/kg/inj days 3,5,7,9,11; total dose 140 mg/kg; CDF female mice
Source text: as §1, §2, §3, §4, §5, §6, §7, §8, §9

HUMAN COLON ADEN[…]-116 = test: Early stage human colon adenocarcinoma HCT-116 xenograft assay; format: in vivo; conditions: Balb/C SCID female mice
Source text: as §1, §2, §3, §4, §5, §6, §7, §8, §9

[4] = Toxicity relative to other cryptophycins (general statement); conditions: compared with other cryptophycins; no test described
[5] = system: MAMMARY ADENOCARCINOMA-16/C/Adr; test: Early stage murine mammary adenocarcinoma-16/C/Adr subcutaneous tumor assay; format: in vivo; conditions: IV 20 mg/kg/inj days 1,3,5,7,9; total dose 100 mg/kg; C3H female mice
Source text: as §1, §2, §3, §4, §5, §6, §7, §8, §9

[6] = system: HUMAN COLON ADENOCARCINOMA 15; format: in vivo; conditions: Balb/C SCID female mice
Source text: as §1, §2, §3, §4, §5, §6, §7, §8, §9

[7] = IV 20 mg/kg/inj days 3,5,7,9,11, total dose 100 mg/kg
[8] = IV 30 mg/kg/inj days 3,5,7,9,11, total dose 150 mg/kg
[9] = IV 16.5 mg/kg/inj days 3,5,7,9,11, total dose 82.5 mg/kg
[10] = IV 25 mg/kg/inj days 3,5,7,9,11, total dose 125 mg/kg
[11] = IV 38 mg/kg/inj days 3,5,7,9,11, total dose 190 mg/kg

Compound: COc1ccc(C[C@H]2NC(=O)/C=C/C[C@@H]([C@H](C)[C@@H](OC(=O)CN)[C@@H](Cl)c3ccccc3)OC(=O)[C@H](CC(C)(C)C)OC(=O)[C@H](C)CNC2=O)cc1Cl [Cryptophycin 309, Cryptophycin-309]
- % T/C MASS [1]: 0%
- ACTIVITY RATING [1]: ++++ (>2.8)
- DRUG DEATHS [1]: 0/5
- GROWTH DELAY [1]: 10.75 days
- LOG KILL [1]: 3.23
- MEDIAN TUMOR WEIGHT [1]: 0 mg
- % T/C MASS [2, 7]: 0%
- ACTIVITY RATING [2, 7]: ++++ (>2.8)
- DRUG DEATHS [2, 7]: 0/5
- GROWTH DELAY [2, 7]: 17 days
- LOG KILL [2, 7]: 3.9
- MEDIAN TUMOR WEIGHT [2, 7]: 0 mg
- % T/C MASS [2, 8]: 0%
- ACTIVITY RATING [2, 8]: ++++ (>2.8)
- DRUG DEATHS [2, 8]: 0/5
- GROWTH DELAY [2, 8]: 16.5 days
- LOG KILL [2, 8]: 3.8
- MEDIAN TUMOR WEIGHT [2, 8]: 0 mg
- % T/C MASS [3]: 0%
- ACTIVITY RATING [3]: +++ (2.0-2.8)
- DRUG DEATHS [3]: 0/6
- GROWTH DELAY [3]: 20.1 days
- LOG KILL [3]: 2.4
- MEDIAN TUMOR WEIGHT [3]: 0 mg
- % T/C MASS (HUMAN COLON ADEN[…]-116; [9]): 0%
- ACTIVITY RATING (HUMAN COLON ADEN[…]-116; [9]): +++ (2.0-2.8)
- DRUG DEATHS (HUMAN COLON ADEN[…]-116; [9]): 0/5
- GROWTH DELAY (HUMAN COLON ADEN[…]-116; [9]): 22 days
- LOG KILL (HUMAN COLON ADEN[…]-116; [9]): 2.65
- MEDIAN TUMOR WEIGHT (HUMAN COLON ADEN[…]-116; [9]): 0 mg
- % T/C MASS (HUMAN COLON ADEN[…]-116; [10]): 0%
- ACTIVITY RATING (HUMAN COLON ADEN[…]-116; [10]): ++++ (>2.8)
- DRUG DEATHS (HUMAN COLON ADEN[…]-116; [10]): 0/5
- GROWTH DELAY (HUMAN COLON ADEN[…]-116; [10]): 29.5 days
- LOG KILL (HUMAN COLON ADEN[…]-116; [10]): 3.6
- MEDIAN TUMOR WEIGHT (HUMAN COLON ADEN[…]-116; [10]): 0 mg
- % T/C MASS (HUMAN COLON ADEN[…]-116; [11]): 0%
- ACTIVITY RATING (HUMAN COLON ADEN[…]-116; [11]): ++++ (>2.8)
- DRUG DEATHS (HUMAN COLON ADEN[…]-116; [11]): 0/5
- GROWTH DELAY (HUMAN COLON ADEN[…]-116; [11]): 34 days
- LOG KILL (HUMAN COLON ADEN[…]-116; [11]): 4.1
- MEDIAN TUMOR WEIGHT (HUMAN COLON ADEN[…]-116; [11]): 0 mg
- toxicity [4]: lower toxicity than other cryptophycins
- % T/C MASS [5]: 0%
- ACTIVITY RATING [5]: ++++ (>2.8)
- DRUG DEATHS [5]: 0/5
- GROWTH DELAY [5]: 11 days
- LOG KILL [5]: 3.0
- MEDIAN TUMOR WEIGHT [5]: 0 mg
- % T/C MASS [6, 9]: 11%
- ACTIVITY RATING [6, 9]: +++ (2.0-2.8)
- DRUG DEATHS [6, 9]: 0/5
- GROWTH DELAY [6, 9]: 24.5 days
- LOG KILL [6, 9]: 2.5
- MEDIAN TUMOR WEIGHT [6, 9]: 126 mg
- % T/C MASS [6, 10]: 0%
- ACTIVITY RATING [6, 10]: ++++ (>2.8)
- DRUG DEATHS [6, 10]: 0/5
- GROWTH DELAY [6, 10]: 31.5 days
- LOG KILL [6, 10]: 3.2
- MEDIAN TUMOR WEIGHT [6, 10]: 0 mg
- % T/C MASS [6, 11]: 0%
- ACTIVITY RATING [6, 11]: ++++ (>2.8)
- DRUG DEATHS [6, 11]: 0/5
- GROWTH DELAY [6, 11]: 32.5 days
- LOG KILL [6, 11]: 3.3
- MEDIAN TUMOR WEIGHT [6, 11]: 0 mg
